As usually defined, the kinetic solubility is the concentration staying in solution when a stock, usually in DMSO, is diluted into the medium.

Values after ≈ are worked out from the molar mass of the structure shown.

The conditions of this series: buffer; pH 7.4; 200.0 µM.
`O=[N+]([O-])c1cc([N+](=O)[O-])c2nonc2c1Nc1ccccc1O` gave a kinetic solubility of over 47.6 µg/mL.

`CC(=O)c1cc(C)ccc1OC(=O)CN1C(=O)c2ccccc2C1=O` gave a kinetic solubility of 24.6 µg/mL (≈ 72.9 µM).

`COc1ccccc1CNC(=O)CN1C(=O)NC2(CCCCCC2)C1=O`: the kinetic solubility was over 53.9 µg/mL.

`C=CCc1ccc(OCCCNC2CCCC2)c(OC)c1` came in with a kinetic solubility of 35.6 µg/mL (≈ 123 µM).

Compound `O=C(CSc1ccccc1)Nc1ccc(Cl)c(S(=O)(=O)N2CCOCC2)c1` gave a solubility (kinetic) of 14.6 µg/mL (≈ 34.2 µM).

Compound `CCOc1ccc(N2C(=O)C3C4C=CC([C@H]5CC45)[C@@H]3C2=O)cc1` (some centres undefined) showed a kinetic solubility of 8.5 µg/mL (≈ 27.5 µM).

Take `Cc1cccc(C)c1N1C(=O)CCC(C)(C)C1=O`: the kinetic solubility is over 36.8 µg/mL.

In the case of `CN1CCC(N(C)S(=O)(=O)c2ccc(NC(=O)c3ccc(S(=O)(=O)N(C)C)cc3)cc2)CC1`, the kinetic solubility is over 74.2 µg/mL.

`COc1ccc(CNC(=O)c2c[nH]c3ccccc3c2=O)cc1`: the solubility (kinetic) was 4.1 µg/mL (≈ 13.3 µM).

For `Cc1ccc(C23CC4CC(CC(C(=O)NCC(=O)O)(C4)C2)C3)cc1`, the solubility (kinetic) was over 49.1 µg/mL.

The compound `COc1cccc(CC2(CO)CCN(Cc3cn(C)nc3C)CC2)c1` registered a kinetic solubility of over 51.5 µg/mL.

Compound `Cc1cc(C)cc(NC(=S)NC(=O)Cc2ccccc2)c1` gave a kinetic solubility of 0.5 µg/mL (≈ 1.68 µM).

In turn, `Cc1ccc(SCCc2cc[n+](CC(=O)c3ccccc3)cc2)cc1` displayed a solubility (kinetic) of 50.8 µg/mL.

`CCOC(=O)C1CCN(C(=O)CN2C(=O)NC(C)(c3ccc4cc(OC)ccc4c3)C2=O)CC1` (centres undefined) showed a solubility (kinetic) of 15.6 µg/mL (≈ 33.4 µM).

For the compound `O=C(Nc1cccc(Cl)c1)Nc1ccon1`, the kinetic solubility came out at 10.7 µg/mL (≈ 45 µM).

`COC(=O)C1CCN(S(=O)(=O)Cc2ccccc2Cl)CC1` showed a kinetic solubility of over 49.8 µg/mL.

Take `Clc1cccc(CN2CCCCCC2)c1Cl`: the solubility (kinetic) is 4.8 µg/mL (≈ 18.6 µM).

With `O=C(COc1ccc2ccc(=O)oc2c1)NC1CCS(=O)(=O)C1` (centres undefined), the solubility (kinetic) is over 50.6 µg/mL.

`O=C(Nc1nccs1)c1cn2ccccc2n1` displayed a kinetic solubility of 36.2 µg/mL (≈ 148 µM).

The compound `Cc1cc(NC(=O)c2ccc(F)cc2)ccc1NC(=O)c1ccco1` returned a kinetic solubility of 3.4 µg/mL (≈ 10 µM).

For `CN(Cc1cccc([N+](=O)[O-])c1)Cc1cccc2ccccc12`, the kinetic solubility is under 0.3 µg/mL.

The compound `FC(F)(F)c1cccc(NC2=NCCCS2)c1` showed a kinetic solubility of 33.7 µg/mL (≈ 129 µM).

The compound `Cc1ccc(N2C(=O)CC(Sc3cccs3)C2=O)cc1` (centres undefined) gave a solubility (kinetic) of 35 µg/mL (≈ 115 µM).

As to `COc1cccc(-c2cc(-c3cccnc3)c(C#N)c(N)n2)c1`, the kinetic solubility was 0.7 µg/mL (≈ 2.32 µM).

For the compound `C=C(C)CN(CC)c1ccc(N2C(=O)CCCC2=O)cc1[N+](=O)[O-]`, the kinetic solubility came to 17.8 µg/mL (≈ 53.7 µM).

In turn, `Cc1ccc(CNC(=O)Nc2ccc(F)cc2)n1C` had a kinetic solubility of over 39.2 µg/mL.

`Cc1ccc2c(c1)c1c(n2CC(O)CN2CCC(C)CC2)CCCC1` (centres undefined): the kinetic solubility was found to be 44.4 µg/mL (≈ 130 µM).

In turn, `O=C(NC1CCS(=O)(=O)C1)C1C2CC3CC(C2)CC1C3` (centres undefined) displayed a kinetic solubility of over 44.6 µg/mL.

The compound `O=C(Cc1ccc(Cl)cc1Cl)NC1CCCCCC1` gave a kinetic solubility of 2.2 µg/mL (≈ 7.33 µM).

`CC(C)C(C(=O)Nc1ccccc1F)N1C(=O)c2ccccc2C1=O` (centres undefined) yielded a kinetic solubility of 38.4 µg/mL (≈ 113 µM).

With `O=C(O)C1CC=CCC1C(=O)NCCCCc1ccccc1` (centres undefined), the kinetic solubility was over 45.2 µg/mL.

Compound `CC(=O)c1ccc(NC(=O)C(Cc2ccccc2)n2cccc2)cc1` (centres undefined) registered a kinetic solubility of 1.6 µg/mL (≈ 4.81 µM).

`CC1CCCCC1NC(=O)CNC(=O)c1cccs1` (centres undefined) displayed a solubility (kinetic) of over 42.1 µg/mL.

As for `CCOC(=O)C1CCCN1C(=O)c1ccc(OC)c(Br)c1` (centres undefined), the kinetic solubility was over 53.4 µg/mL.

For `O=C(Nc1cc2c3c(c1)CC(=O)N3CCC2)c1ccccc1F`, the kinetic solubility worked out at 46.4 µg/mL (≈ 150 µM).

Turning to `O=C(NCCc1ccc(Cl)cc1)c1ccc2nc[nH]c2c1`, the solubility (kinetic) was over 45 µg/mL.

In turn, `COC(=O)CC(N)c1ccc(Br)cc1.Cl` (centres undefined) gave a kinetic solubility of over 44.2 µg/mL.

Compound `NC(=S)Nc1cccc(F)c1` had a solubility (kinetic) of over 25.5 µg/mL.

Compound `COCCn1c(SCC(=O)NCCCN2CCCC2=O)nc2ccccc2c1=O` showed a solubility (kinetic) of over 62.8 µg/mL.

Compound `O=C(NCc1ccc(F)cc1)C(c1ccccc1)c1ccccc1` displayed a kinetic solubility of under 0.7 µg/mL.

In turn, `COc1ccccc1NC(=O)NC1CCS(=O)(=O)C1` (centres undefined) had a solubility (kinetic) of over 42.6 µg/mL.

`CCn1c(=O)c([N+](=O)[O-])c(NCc2ccco2)c2ccccc21` came in with a solubility (kinetic) of 0.6 µg/mL (≈ 1.92 µM).

For the compound `O/N=C1\CCSc2ccc(F)cc21`, the solubility (kinetic) amounted to 23.4 µg/mL (≈ 119 µM).

The compound `CC1CN(C(=S)Nc2ccc(F)cc2F)CC(C)O1` (centres undefined) yielded a solubility (kinetic) of over 43 µg/mL.

As to `COCCNC(=O)C(=O)Nc1cc2c3c(c1)C(C)C(=O)N3CCC2` (centres undefined), the kinetic solubility was found to be 48.7 µg/mL (≈ 147 µM).

Compound `CC(C)c1ccc(N2C(=O)CC(Sc3ncccn3)C2=O)cc1` (centres undefined) returned a solubility (kinetic) of 4 µg/mL (≈ 12.2 µM).

Turning to `Cc1cc(C)c(C#N)c(SCCN2CCCCC2)n1`, the kinetic solubility is over 41.3 µg/mL.

`O=C(CNC(=O)c1ccco1)Nc1ccc(Br)cc1` registered a kinetic solubility of 14.1 µg/mL (≈ 43.6 µM).

`COc1ccc(NC(=S)Nc2ccccc2Cl)cn1` came in with a solubility (kinetic) of 38.8 µg/mL (≈ 132 µM).

In the case of `O=C(CN1CCCCC1)Nc1ccccc1Oc1ccccc1`, the solubility (kinetic) is 5.6 µg/mL (≈ 18 µM).

For `CC(C)(C)c1nnc(NS(=O)(=O)c2ccc([N+](=O)[O-])cc2)s1`, the kinetic solubility was over 51.4 µg/mL.

In the case of `CSc1ncnc2sc(C)c(C)c12`, the solubility (kinetic) stood at 1.3 µg/mL (≈ 6.18 µM).

In turn, `O=C(NCCN1CCCCC1)Nc1ccc([N+](=O)[O-])cc1` displayed a kinetic solubility of over 43.9 µg/mL.

On to `Cc1cc(C(=O)COC(=O)/C=C/c2ccco2)c(C)n1C`, for which the kinetic solubility was 12.9 µg/mL (≈ 44.9 µM).

`CCCc1cnc(N2CCN(C(=O)c3c(-c4ccccc4)noc3C)CC2)nc1` showed a solubility (kinetic) of 40.7 µg/mL (≈ 104 µM).

On to `COC(=O)C1=C(C)N(Cc2ccc(OC)cc2)C(=O)/C1=C\c1ccco1`, for which the solubility (kinetic) was 7.7 µg/mL (≈ 21.8 µM).

In the case of `O=C(O)COCC(=O)NCc1nc(-c2ccc(C(F)(F)F)cc2)no1`, the solubility (kinetic) was over 53.9 µg/mL.

Turning to `O=C(COC(=O)c1nsc(Cl)c1Cl)NC1CCCC1`, the solubility (kinetic) is over 48.5 µg/mL.

As to `COCCNC(=O)C(OC(=O)c1cccs1)c1ccc(F)cc1` (centres undefined), the kinetic solubility was over 50.6 µg/mL.

`CC(C)(C)N(Cc1cc2ccccc2[nH]c1=O)C(=O)c1ccco1` came in with a kinetic solubility of 2.9 µg/mL (≈ 8.94 µM).

`CCOc1ccccc1N1CCN(Cc2cnc(-c3ccccc3)[nH]2)CC1` displayed a kinetic solubility of over 54.4 µg/mL.

In turn, `CN(C)CCC(O)c1ccccc1` (centres undefined) returned a solubility (kinetic) of 13.3 µg/mL (≈ 74.2 µM).

`COc1cccc(Nc2ncnc3sccc23)c1` showed a solubility (kinetic) of over 38.6 µg/mL.

In the case of `COc1ccc(-c2cc(C(=O)Nc3cc(C)on3)no2)cc1OC`, the kinetic solubility was under 0.2 µg/mL.

`CCOc1cc(/C=C2/C(=O)ON=C2C)ccc1O` yielded a kinetic solubility of 27.2 µg/mL (≈ 110 µM).

In the case of `CN(C)c1ccc(/C=C/C(=O)c2cccnc2)cc1`, the solubility (kinetic) amounted to 9.5 µg/mL (≈ 37.7 µM).

The compound `O=[N+]([O-])c1ccc2c(c1)ncn2CCc1ccccc1` displayed a solubility (kinetic) of 8 µg/mL (≈ 29.9 µM).

Regarding `CCCCC(=O)Nc1cccc(-c2nc3ncccc3o2)c1C`, the solubility (kinetic) is over 46.4 µg/mL.

The compound `Cc1cccc(N2CCN(C(=O)NC3CCCCC3)CC2)c1C` came in with a kinetic solubility of 0.7 µg/mL (≈ 2.22 µM).

The compound `CC(C)CC(OC(=O)c1nsc(Cl)c1Cl)C(=O)NC1CCCC1` (centres undefined) showed a kinetic solubility of 22.4 µg/mL (≈ 59.1 µM).

Consider `COc1ccccc1C1CCN(c2ccc([N+](=O)[O-])c(OC)c2)CC1`, for which the kinetic solubility was under 0.4 µg/mL.

The compound `Cc1nc2sccc2c(=O)n1N` yielded a solubility (kinetic) of over 27.2 µg/mL.

With `CN1CCC(N(C)C(=O)NC2CCCCC2)CC1`, the solubility (kinetic) is over 38 µg/mL.

`Cc1cc(NC(=O)Cn2c(=O)oc3ccc(Cl)cc32)no1` had a solubility (kinetic) of 1.5 µg/mL (≈ 4.87 µM).

These data come from PubChem BioAssay AID1996.
